Assay results: PMC10287670, “A coiled-coil-based design strategy for the thermostabilization of G-protein-coupled receptors” (Scientific Reports, 2023)
pKd: −log10 of the molar value.

Molecular target: T1, β3 adrenergic receptor (β3AR-cc3.1 chimera) (Homo sapiens, UniProt P13945, E36A/M86V/I125V/E126W/Y224A/F341M/Y346L)
T1 construct: gene ADRB3; Ala2 to Leu368 lacking Pro3 to Thr27, with Thermus thermophilus SRS antiparallel coiled coil cc3.1 inserted between Ala231 and Glu286 (replacing ICL3); N-terminal FLAG and C-terminal TwinStrep tags
T1 sequence (P13945 2-368 E36A/M86V/I125V/E126W/Y224A/F341M/Y346L): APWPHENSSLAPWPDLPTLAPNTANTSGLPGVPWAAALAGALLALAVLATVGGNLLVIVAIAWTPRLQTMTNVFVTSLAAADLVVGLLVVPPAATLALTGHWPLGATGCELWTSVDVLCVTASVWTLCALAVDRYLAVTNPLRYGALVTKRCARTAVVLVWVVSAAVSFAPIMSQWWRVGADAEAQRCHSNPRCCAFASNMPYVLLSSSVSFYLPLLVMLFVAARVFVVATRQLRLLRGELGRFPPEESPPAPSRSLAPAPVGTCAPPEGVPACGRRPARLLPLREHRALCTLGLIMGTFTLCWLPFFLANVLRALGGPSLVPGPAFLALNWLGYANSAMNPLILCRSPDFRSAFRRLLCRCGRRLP
Experiment: radioligand saturation binding (SPA) on membranes of HEK-293S-GnTI- cells expressing β3AR-cc3.[…]

CCCc1ccccc1OC[C@@H](O)CNC(C)C [[3H]-dihydroalprenolol]
pKd: 6.82
